Measurements published in ChEMBL document CHEMBL1136496, “Synthesis and evaluation of optically pure dioxolanes as inhibitors of hepatitis C virus RNA replication” (Bioorg Med Chem Lett, 2003).

System: Nucleic Acid
Assay: Concentration required to inhibit HCV RNA replication was determined
Format: functional, Hepacivirus hominis

EC50 | SMILES
> 50 µM | Nc1nc(O)c2ccn([C@H]3CO[C@@H](CO)O3)c2n1
> 50 µM | C[C@H]1O[C@@H](CO)O[C@@H]1n1ccc2c(N)ncnc21
> 50 µM | Nc1ncnc2c1ccn2[C@H]1CO[C@@H](CO)O1
> 50 µM | C[C@H]1O[C@@H](CO)O[C@H]1n1ccc2c(N)ncnc21
> 50 µM | Nc1ncnc2c1ccn2[C@@H]1CO[C@@H](CO)O1
> 50 µM | C[C@H]1O[C@@H](CO)O[C@H]1n1ccc2c(O)nc(N)nc21
